The target in data set [1] is MDR-1 gene product P-glycoprotein (Homo sapiens, UniProt P08183). Description: P-glycoprotein-mediated substrate efflux. In kind it is cell-based.
For the next data set, the system named is cells. As to the kind of experiment: apoptosis induction / cell cycle measurements in cells. In kind it is cell-based.

The structures appear in SMILES notation.

Chain of MDR-1 gene product P-glycoprotein (P08183 whole entry): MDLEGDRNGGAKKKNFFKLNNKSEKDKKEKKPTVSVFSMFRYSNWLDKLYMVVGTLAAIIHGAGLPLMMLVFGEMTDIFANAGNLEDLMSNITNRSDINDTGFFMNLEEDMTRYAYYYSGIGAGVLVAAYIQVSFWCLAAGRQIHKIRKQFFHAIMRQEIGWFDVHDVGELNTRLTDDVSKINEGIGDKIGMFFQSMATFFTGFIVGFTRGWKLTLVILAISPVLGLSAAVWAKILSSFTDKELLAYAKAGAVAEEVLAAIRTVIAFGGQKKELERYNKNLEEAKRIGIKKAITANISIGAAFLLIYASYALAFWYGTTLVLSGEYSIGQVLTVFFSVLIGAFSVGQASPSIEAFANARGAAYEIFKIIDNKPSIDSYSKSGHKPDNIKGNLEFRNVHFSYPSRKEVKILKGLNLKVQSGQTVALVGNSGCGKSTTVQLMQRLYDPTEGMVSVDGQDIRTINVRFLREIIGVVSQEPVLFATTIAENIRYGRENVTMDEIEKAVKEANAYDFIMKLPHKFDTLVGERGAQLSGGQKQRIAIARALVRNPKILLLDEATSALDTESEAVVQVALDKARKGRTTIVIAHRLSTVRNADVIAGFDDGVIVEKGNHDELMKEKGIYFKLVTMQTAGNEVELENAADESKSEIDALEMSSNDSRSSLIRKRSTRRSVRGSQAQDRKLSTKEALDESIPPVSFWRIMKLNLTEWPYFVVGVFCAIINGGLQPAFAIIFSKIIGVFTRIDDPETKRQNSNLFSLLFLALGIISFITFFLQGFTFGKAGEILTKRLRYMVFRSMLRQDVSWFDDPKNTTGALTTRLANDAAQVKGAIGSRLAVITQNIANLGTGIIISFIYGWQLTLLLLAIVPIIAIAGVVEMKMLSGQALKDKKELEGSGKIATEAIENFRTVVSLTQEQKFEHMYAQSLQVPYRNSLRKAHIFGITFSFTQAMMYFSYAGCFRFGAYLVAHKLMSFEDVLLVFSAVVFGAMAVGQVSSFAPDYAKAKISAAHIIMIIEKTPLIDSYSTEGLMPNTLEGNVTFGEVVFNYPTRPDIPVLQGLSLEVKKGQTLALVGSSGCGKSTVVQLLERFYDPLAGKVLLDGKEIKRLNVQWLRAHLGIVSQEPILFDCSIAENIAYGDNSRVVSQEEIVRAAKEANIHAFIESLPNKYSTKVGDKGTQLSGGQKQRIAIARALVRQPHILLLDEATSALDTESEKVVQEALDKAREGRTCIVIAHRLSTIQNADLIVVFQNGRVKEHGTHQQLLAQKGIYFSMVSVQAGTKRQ

Consider `COc1cc([C@@H]2c3cc4c(cc3[C@@H](O[C@@H]3O[C@@H]5CO[C@@H](C)O[C@H]5[C@H](O)[C@H]3O)[C@H]3COC(=O)[C@H]23)OCO4)cc(OC)c1O` [etoposide], for which, in data set [1], the “effect on P-glycoprotein” value is given as “ineffective” and the “retention in cells / efflux” value is reported as “pumped out of the cells”. In the data set with cells, the “apoptosis is complete after” value is recorded as 48 h.

(Values after patent US10183035B2, “Etoposide and prodrugs thereof for use in targeting cancer stem cells” (CELLACT PHARMA GMBH, priority 2013, dated 2019).)
